Entries after “also recorded” stand apart in the source; their conditions may differ. No end group written: not given here.
Tests used:
[1] = tested on: SW-480 human colon carcinoma cells; test: In vivo xenograft tumor model; conditions: Study Day 22; 6.0 mg/kg IV, five doses
Description: Female athymic nude mice (Crl:NU/NU-nuBR) at 6–8 weeks of age were used in this study. […] Test compound and vehicle were administered intraperitoneally (IP), Cisplatin was administered intravenously (IV). Tumor measurements were recorded twice weekly using hand-held calipers. Mice were monitored daily for signs of toxicity and morbidity. At study termination, animals were euthanized by carbon dioxide overdose and necropsied for tissue collection.
A total of nine (9) groups were used in this study. Each group contained ten (10) tumor-bearing mice. Groups 1 and 2 contained untreated and vehicle treated negative control mice, respectively. […] Group 9 contained mice that received cisplatin, a standard chemotherapeutic compound as a positive control.
Dosing began the same day that animals were randomly sorted into groups (Study Day 7). Each dose was removed from the dose vial using aseptic technique for each animal and the injection site was wiped with an alcohol swab prior to dose administration. […]
Clinical Observations of each animal were performed and recorded at least once daily for toxicity, morbidity and mortality. […]
In accordance with the protocol, tumor measurements were taken twice weekly throughout the study by measuring the length and width of tumors with calibrated calipers. […] Tumor weights were calculated using the following formula: mg=(L×W^2)/2. […]

HUVECs = test: Endothelial cell proliferation assay, BrdU detection; format: cell-based, human; conditions: 10 μg/mL, in the presence of VEGF (30 ng/mL)
Description: Briefly, freshly isolated HUVECs (between p3–6) were cultured in RPMI+10% FCS+1% antibiotics+1% 1-glutamin+0.4% BBE (bovine brain extract) and seeded per well, 5000–10000/well in 100 μL. The cells were allowed to recover for 24 h prior to use. Then the cells were washed with PBS twice and treated for 48 h with anti-VEGF antibody (positive control) or peptides A, B and C (0.1 and 10 ug/mL) in RPMI+0.1% BSA+1% 1-glutamin. The following 6 variables were tested in 2 series (n=4): • Series I: w/o VEGF • Series II: w/VEGF (30 ng/mL) • 1. Standard medium: RPMI+10% FCS+1% antibiotics+1% 1-glutamin+0.4% BBE • 2. Negative control 1: RPMI (true starvation) • 3. Negative control 2: RPMI+0.1% BSA+1% 1-glutamin • 1. Positive control: anti-VEGF 10 μg/ml in RPMI+0.1% BSA+1% 1-glutamin • 5. 0.1 μg/ml KDR peptides in RPMI+0.1% BSA+1% 1-glutamin • 6. […] Note: Background binding was determined by omitting the anti-BrdU antibody in 4 wells with control cells (cultured in complete medium; EBM+BulletKit) and by complete labeling of cells that was not exposed to BrdU.

[2] = tested on: VEGF-induced migration of HUVECs; test: HUVEC migration/invasion assay; format: cell-based, human
[3] = target: T1, KDR-transfected 293H cells (Homo sapiens, UniProt P35968); test: Binding of peptide-conjugated microbubbles to KDR-transfected cells; format: cell-based
T1 construct: Both PCR products were digested with Not1 and ligated together to create the full-length receptor; V5-His (encoded by the vector); expressed in transfected cells; host or cells: 293H cells (Invitrogen cat. # 11631), transient lipofectamine 2000 transfection
Description: 293H cells were transfected with KDR cDNA. […] Competition was also performed using a non-binding control peptide as a competing compound.
293H cells were transfected with KDR cDNA.
D23 (a dimeric construct of P6- and P12-derived sequences) was conjugated with a preparation of microbubbles as above described, according to the following methodology. The thioacetylated peptide ([…]) was dissolved in 20 μl DMSO and then diluted in 1 ml of Phosphate Buffer Saline (PBS). This solution was mixed to the N-MPB-functionalized microbubbles dispersed in 18 ml of PBS-EDTA 10 mM, pH 7.5 and 2 ml of deacetylation solution (50 mM sodium phosphate, 25 mM EDTA, 0.5 M hydroxylamine.HCl, pH 7.5) was added. The headspace was filled with C4F10/Air (50/50) and the mixture was incubated for 2.5 hours at room temperature under gentle agitation (rotating wheel), in the dark. Conjugated bubbles were washed by centrifugation. Similarly, the monomer peptides making up D23 were separately conjugated to two different microbubble preparations according to the methodology described above.

KDR/VEGF complex = target: T2, KDR/VEGF complex (Homo sapiens, UniProt P35968); test: Cell based assay for binding of KDR/VEGF complex binders (peptide-125I-streptavidin complexes); conditions: in the presence of VEGF
T2 construct: Both PCR products were digested with Not1 and ligated together to create the full-length receptor; V5-His (encoded by the vector); expressed in transfected cells; host or cells: 293H cells, transiently transfected; VEGF added exogenously
Source text: Furthermore, these peptides, as well as other peptides which bind KDR/VEGF complex may advantageously be included in heteromultimers of the invention.

[4] = target: T3, KDR-expressing 293H cells (Homo sapiens, UniProt P35968); test: Bead-binding assay, peptide-conjugated fluorescent beads; format: cell-based; conditions: Neutravidin-coated beads, 40% FBS
T3 construct: Both PCR products were digested with Not1 and ligated together to create the full-length receptor; V5-His (encoded by the vector); expressed in transfected cells; host or cells: 293H cells (Invitrogen cat. # 11631), transient lipofectamine 2000 transfection
Description: As a positive control, biotinylated anti-KDR antibody was incubated with the Neutravidin-coated beads as above, except that 0.03 mg of the biotinylated antibody preparation in PBS (Gibco 14190-136) was used instead of peptide solution. Beads can be stored at 4° C. until needed for up to 1 week.
293H cells were transfected using the protocol described in Example 6. Transfection was done in black/clear 96-well plates (Becton Dickinson, cat. # 354640). The cells in one half of the plate (48 wells) were mock-transfected (with no DNA) and those in the other half of the plate were transfected with KDR cDNA. The cells were 80–90% confluent at the time of transfection and completely confluent the next day, at the time of the assay; otherwise the assay was aborted.
From the above bead preparations, 0.12 mL was spun for 10 minutes at 2000 rpm in a microcentrifuge at room temperature. The supernatant was removed and 0.06 mL of MES pH 6.0 was added. Each bead solution was then vortexed and sonicated in a water bath 15 min. To 1.47 mL of DMEM, high glucose (GIBCO 11965-084) with 1×MEM Non-Essential Amino Acids Solution (NEAA) (GIBCO 11140-050) and 40% FBS (Hyclone SH30070.02) 0.03 mL of the sonicated bead preparations was added. 96-well plates seeded with 293H cells which have been mock-transfected in columns 1 to 6, and KDR-transfected in columns 7 to 12 (as described above), were drained and washed once with DMEM, high glucose with 1×NEAA and 40% FBS. To each well was added 0.1 mL of bead solution, six wells per bead preparation. […] After draining, 0.1 mL of PBS was added per well. The plates were then read on a Packard FluoroCount fluorometer at excitation 550 nm/emission 620 nm. Unconjugated Neutravidin beads were used as a negative control while beads conjugated with a biotinylated anti-KDR antibody were used as the positive control for the assay.
To calculate the number of beads bound per well, a standard curve with increasing numbers of the same fluorescent beads was included in each assay plate. The standard curve was used to calculate the number of beads bound per well based on the fluorescence intensity of each well.

[5] = target: T4, KDR expressed by transfected 293H cells (Homo sapiens, UniProt P35968); test: Competition with 125I-labeled VEGF for binding to KDR-transfected 293H cells
T4 construct: Both PCR products were digested with Not1 and ligated together to create the full-length receptor; V5-His (encoded by the vector); expressed in transfected cells; host or cells: 293H cells (Invitrogen cat. # 11631), transient lipofectamine 2000 transfection
Description: Once prepared, the solutions were kept on ice until ready to use.
Cells were used 24 h after transfection, and to prepare the cells for the assay, they were washed 3 times with room temperature M199 medium and placed in the refrigerator. […] After incubating at 4° C. for 2 h, the plates were washed 5 times with cold binding buffer, gently blotted dry and checked under a microscope for cell loss. 100 μL of solubilizing solution (2% Triton X-100, 10% Glycerol, 0.1% BSA) was added to each well and the plates were incubated at room temperature for 30 minutes. The solubilizing solution in each well was mixed by pipeting up and down, and transferred to 1.2 mL tubes. Each well was washed twice with 100 μL of solubilizing solution and the washes were added to the corresponding 1.2 mL tube.
After washing the cells, the bound radioactivity was quantitated on a gamma counter.

KDR transfected cells = target: T5, KDR transfected cells (Homo sapiens, UniProt P35968); test: Competition of free peptides with P5-XB/avidin HRP complex (Experiment E); format: binding; conditions: P5-XB/avidin HRP 3.33 nM; free peptide 0–[…]
T5 construct: Both PCR products were digested with Not1 and ligated together to create the full-length receptor; V5-His (encoded by the vector); expressed in transfected cells; host or cells: 293H cells (Invitrogen cat. # 11631), transient lipofectamine 2000 transfection
Source text: If the peptides bind to the same site on KDR, they would likely compete with each other for binding to KDR, whereas if the peptides bind to different sites, there should be no competition between the peptides for binding to KDR.

KDR-expressing cells = target: T6, KDR-expressing cells (Homo sapiens, UniProt P35968); test: Displacement assay competing with P12-XB/streptavidin-HRP complex for binding to KDR-expressing cells; conditions: complex concentration 5.5 nM
T6 construct: Both PCR products were digested with Not1 and ligated together to create the full-length receptor; V5-His (encoded by the vector); expressed in transfected cells; host or cells: 293H cells (Invitrogen cat. # 11631), transient lipofectamine 2000 transfection
Description: After determining the specific binding under each experimental condition, the IC50 for each peptide was determined (where possible).

[6] = target: T1, KDR-transfected 293H cells; test: Binding of radiolabeled (Tc, I, Lu) peptides to KDR-transfected 293H cells

T1 sequence (P35968 20-1356): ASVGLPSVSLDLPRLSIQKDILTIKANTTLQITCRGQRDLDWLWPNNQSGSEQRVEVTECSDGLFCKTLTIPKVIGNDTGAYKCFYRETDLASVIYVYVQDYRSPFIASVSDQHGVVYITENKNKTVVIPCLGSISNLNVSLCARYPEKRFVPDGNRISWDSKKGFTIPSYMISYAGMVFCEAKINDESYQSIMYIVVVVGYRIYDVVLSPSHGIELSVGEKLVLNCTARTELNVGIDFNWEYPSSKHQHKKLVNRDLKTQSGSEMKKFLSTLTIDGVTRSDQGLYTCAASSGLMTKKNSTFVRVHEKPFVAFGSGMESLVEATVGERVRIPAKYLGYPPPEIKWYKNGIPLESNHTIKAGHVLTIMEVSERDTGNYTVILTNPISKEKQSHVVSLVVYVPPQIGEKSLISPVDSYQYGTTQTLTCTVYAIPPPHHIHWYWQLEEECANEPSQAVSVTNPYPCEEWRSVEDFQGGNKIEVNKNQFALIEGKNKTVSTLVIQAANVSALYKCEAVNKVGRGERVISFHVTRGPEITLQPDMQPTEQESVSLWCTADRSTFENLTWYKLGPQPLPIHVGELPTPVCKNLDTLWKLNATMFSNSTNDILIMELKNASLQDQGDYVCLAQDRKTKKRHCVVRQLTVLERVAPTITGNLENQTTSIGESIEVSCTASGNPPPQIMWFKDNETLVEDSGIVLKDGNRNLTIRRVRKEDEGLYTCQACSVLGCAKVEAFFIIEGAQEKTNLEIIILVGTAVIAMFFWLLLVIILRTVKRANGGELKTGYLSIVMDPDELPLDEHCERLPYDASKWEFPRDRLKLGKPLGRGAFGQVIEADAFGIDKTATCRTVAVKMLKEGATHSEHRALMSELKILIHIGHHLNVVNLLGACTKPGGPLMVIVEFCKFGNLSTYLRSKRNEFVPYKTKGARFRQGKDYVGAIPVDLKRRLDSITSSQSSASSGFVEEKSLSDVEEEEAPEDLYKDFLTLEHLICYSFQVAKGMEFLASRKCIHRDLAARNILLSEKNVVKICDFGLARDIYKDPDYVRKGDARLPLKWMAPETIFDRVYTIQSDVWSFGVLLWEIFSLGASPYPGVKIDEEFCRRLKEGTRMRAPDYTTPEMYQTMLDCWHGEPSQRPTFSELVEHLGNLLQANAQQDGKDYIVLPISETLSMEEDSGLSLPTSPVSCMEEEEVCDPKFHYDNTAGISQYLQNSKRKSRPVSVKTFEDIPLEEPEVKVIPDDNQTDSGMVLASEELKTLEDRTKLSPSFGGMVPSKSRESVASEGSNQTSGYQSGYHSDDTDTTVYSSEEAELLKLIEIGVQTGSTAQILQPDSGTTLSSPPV
T4 sequence (P35968 20-1356): as above
T3 sequence (P35968 20-1356): as above
T2 sequence (P35968 20-1356): as above
T2 sequence (P15692 27-191 isoform P15692-4 partner): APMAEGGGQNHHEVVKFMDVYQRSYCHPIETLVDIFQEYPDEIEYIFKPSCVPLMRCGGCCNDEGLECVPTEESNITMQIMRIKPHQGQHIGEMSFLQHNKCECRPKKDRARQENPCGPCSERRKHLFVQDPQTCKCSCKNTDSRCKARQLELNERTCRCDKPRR
T5 sequence (P35968 20-1356): as the sequence (P35968 20-1356) above
T6 sequence (P35968 20-1356): as above

N.N.[Cl][Pt][Cl] [Cisplatin]
mean tumor weight [1]: 995 mg

CC(=O)N[C@@H](C)C(=O)NCC(=O)N1CCC[C@H]1C(=O)N[C@H](C(=O)N[C@@H](Cc1c[nH]c2ccccc12)C(=O)N[C@H]1CSSC[C@@H](C(=O)N[C@@H](Cc2c[nH]c3ccccc23)C(=O)N[C@@H](CC(C)C)C(=O)N[C@@H](Cc2ccccc2)C(=O)NCC(=O)N[C@H](C(=O)NCC(=O)NCC(=O)NCC(=O)N[C@@H](CCCCN)C(N)=O)[C@@H](C)O)NC(=O)[C@H](Cc2ccc(O)cc2)NC(=O)[C@H](Cc2ccc(O)cc2)NC(=O)[C@H](Cc2c[nH]c3ccccc23)NC(=O)[C@H](CC(=O)O)NC(=O)[C@H](CC(=O)O)NC(=O)[C@H](CCC(=O)O)NC1=O)[C@@H](C)O [P12-G, Ac-AGPTWC*EDDWYYC*WLFGT-GGGK-NH2]
inhibition of HUVEC proliferation (HUVECs): does not inhibit proliferation

CC(C)c1cc(/C=C(\C#N)C(=O)NCCCc2ccccc2)cc(C(C)C)c1O [SU1498, (E)-3-(3,5-Diisopropyl-4-hydroxyphenyl)-2-[(3-phenyl-n-propyl)aminocarbonyl]acrylonitrile]
VEGF-induced migration blocked ([2]; 3 micromolar): 47%

AGPTWCEDDWYYCWLFGT [P12]
competition of conjugated microbubbles by free peptide ([3]; Experiment A, free peptide 100 μM to 3 nM): competed off by the corresponding free KDR-specific peptide

Ac-AGMPWCVEKDHWDCWWWGTGGGK(Biotin-JJ)-NH2 [P31-XB]
specific binding of peptide-125I-streptavidin complex (KDR-mock) (KDR/VEGF complex): Only the complex containing P30-XB showed specific binding

Ac-AGPGPCKGYMPHQCWYMGTGGGK(Biotin-JJ)-NH2 [P30-XB]
specific binding of peptide-125I-streptavidin complex (KDR-mock) (KDR/VEGF complex): specifically bound to KDR-transfected 293H cells; also recorded: showed specific binding

Ac-AGPKWC*EEDWYYC*MITGT-GGGK-(Biotin)-NH2 [P5-B]
binding of ligand-coated fluorescent beads to KDR-transfected vs mock-transfected cells [4]: did not bind to the KDR-transfected cells significantly more than to mock-transfected cells

Ac-AGPKWC*EEDWYYC*MITGTGGGK-(Biotin-JJ-)-NH2 [P5-XB]
binding of ligand-coated fluorescent beads to KDR-transfected vs mock-transfected cells [4]: Specific binding to KDR was detected
percentage inhibition of 125I-labeled VEGF binding ([5]; 0.3 μM peptide): 24.41±8.43%
percentage inhibition of 125I-labeled VEGF binding ([5]; 30 μM peptide): 47.95±5.09%
competition with P5-XB/avidin HRP solution for binding (KDR transfected cells): does compete

Ac-AGYGPCKNMPPWMCWHEGTGGGK(Biotin-JJ)-NH2 [P32-XB]
specific binding of peptide-125I-streptavidin complex (KDR-mock) (KDR/VEGF complex): Only the complex containing P30-XB showed specific binding

Ac-DWYYGGGK-NH2 [F1]
inhibition of P12-XB streptavidin-HRP complex binding (KDR-expressing cells): IC50 below one micromolar

Ac-ERVTTCWPGEYGGVECYSVAY-NH2 (cysteine pairing not given here) [PG-1, reference compound]
competition with 125I-VEGF for binding to KDR-transfected cells [5]: competed about equally well
VEGF-stimulated migration ([2]; up to 62.5 nM): had no effect on VEGF-stimulated migration

Ac-GDSRVC*WEDSWGGEVC*FRYDP-GGGK-(Biotin)-NH2 [P6-B]
binding of ligand-coated fluorescent beads to KDR-transfected vs mock-transfected cells [4]: showed greater binding to KDR-transfected cells

Ac-GDSRVC*WEDSWGGEVC*FRYDPGGGK-(Biotin-JJ-)-NH2 [P6-XB]
competition with P5-XB/avidin HRP solution for binding (KDR transfected cells): do not compete

GDSRVCWEDSWGGEVCFRYDP [P6]
binding of ligand-coated fluorescent beads to KDR-transfected vs mock-transfected cells [4]: Specific binding to KDR was detected
binding of conjugated microbubbles ([3]; Experiment C, 50% human serum): bound poorly

Tc-labeled D18: 99mTc-labeled scrambled dimer D18 (peptide 1 APGTWCDYDWEYCWLGTFGGGK; peptide 2 GVDFRCEWSDWGEVGCRSPDYGGGK; not fully specified (bridges); cysteine pairing not given here; also: 99mTc label, site not given here, heterodimer, linkage not given here)
binding of radiolabeled compound to KDR transfected vs mock transfected 293H cells [6]: displayed no affinity for either mock-transfected or KDR-transfected 293H cells
